Measurements: article PMC7659345, “Viral rhodopsins 1 are an unique family of light-gated cation channels” (Nature Communications, 2020)

What was measured:
[1] = target: T1, OLPVR1 (Organic Lake phycodnavirus 1, UniProt Z9N4O7KYY5); assay: X-ray crystal structure, […] A (type A, P21212) and […] A (type B, P1); format: binding; details: covalent Schiff base to K204; all-trans 15-anti; crystals grown in meso with monopalmitolein, pH 8.0 (7AKY); also 7AKX (monoolein, pH 7.0)
T1 construct: residues 2-223 resolved; one (P21212) or two (P1) molecules per asymmetric unit
T1 sequence (Z9N4O7KYY5 1-223): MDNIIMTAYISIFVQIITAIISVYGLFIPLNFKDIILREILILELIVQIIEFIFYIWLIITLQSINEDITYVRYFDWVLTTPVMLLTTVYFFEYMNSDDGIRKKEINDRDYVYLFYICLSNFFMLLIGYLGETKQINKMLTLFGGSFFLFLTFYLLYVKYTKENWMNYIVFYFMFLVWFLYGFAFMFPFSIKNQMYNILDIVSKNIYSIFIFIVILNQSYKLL

[2] = target: T2, VirChR1 (marine metagenome, UniProt Z9TV22U1G0); assay: UV-visible absorption of purified holoprotein; format: binding; details: covalent Schiff base (by homology); pH 7.5; all-trans-retinal added to E. coli culture
T2 sequence (Z9TV22U1G0 1-242): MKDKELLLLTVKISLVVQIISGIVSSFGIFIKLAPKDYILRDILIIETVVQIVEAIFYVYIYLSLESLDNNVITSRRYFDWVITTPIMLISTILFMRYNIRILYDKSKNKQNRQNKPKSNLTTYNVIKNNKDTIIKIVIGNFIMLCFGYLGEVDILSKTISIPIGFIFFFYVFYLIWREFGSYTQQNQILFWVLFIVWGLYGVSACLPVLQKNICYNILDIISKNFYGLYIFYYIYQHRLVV

Q: Which results are given for CC1=C(/C=C/C(C)=C/C=C/C(C)=C/C=O)C(C)(C)CCC1 [all-trans retinal]?
A: X-ray crystal structure, 1.4 A (type A, P21212) and 1.6 A (type B, P1) [1]: all-trans retinal (ATR) covalently bound to K204 (K257 in CrChR2; UV-visible absorption of purified holoprotein [2]: Both OLPVR1 and VirChR1 show absorption spectra sensitive to blue light
